Source: PMC8171083, “A nano-predator of pathological MDMX construct by clearable supramolecular gold(I)-thiol-peptide complexes achieves safe and potent anti-tumor activity” (Theranostics, 2021)
Where a SMILES comes first, the peptide text is derived from it. The star is where a group is joined. Cbz = O=C(OCc1ccccc1)*

Tests used:
WERI-Rb-1 cells = assay: Cell uptake analysis by flow cytometry (FITC-labelled); type: cell-based; conditions: pH 6.5; 3 mM Amiloride, 2 μM cytochalasin D
MDMX = biological target: T1, MDMX (Homo sapiens, UniProt O15151); assay: MDMX degradation by western blot; type: cell-based; conditions: 200 nM Nano-MP@PSI, 12-hour preincubation of inhibitor
T1 construct: endogenous in cells; host or cells: WERI-Rb-1 (ATCC)
T1 sequence (O15151 1-490): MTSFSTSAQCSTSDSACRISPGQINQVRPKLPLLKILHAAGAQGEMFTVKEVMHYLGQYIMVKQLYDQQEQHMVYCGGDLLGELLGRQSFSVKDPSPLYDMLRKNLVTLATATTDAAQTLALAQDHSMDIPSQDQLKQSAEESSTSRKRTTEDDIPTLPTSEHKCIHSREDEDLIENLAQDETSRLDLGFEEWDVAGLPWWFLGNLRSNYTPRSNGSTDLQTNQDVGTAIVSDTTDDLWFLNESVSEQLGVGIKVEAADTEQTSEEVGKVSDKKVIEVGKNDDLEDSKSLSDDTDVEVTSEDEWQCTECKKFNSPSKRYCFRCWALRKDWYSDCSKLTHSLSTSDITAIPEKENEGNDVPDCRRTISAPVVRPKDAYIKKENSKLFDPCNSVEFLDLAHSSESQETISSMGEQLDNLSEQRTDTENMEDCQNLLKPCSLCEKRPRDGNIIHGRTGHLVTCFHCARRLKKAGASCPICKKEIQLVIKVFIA
Text: The protein fraction of cell lysates was resolved by 10%SDS/PAGE before membrane
transfer. Primary antibodies were from Santa Cruz Biotechnology (p53), Abcam (p73), Proteintech
(MDMX，p21, GAPDH); secondary antibodies conjugated with horseradish peroxidase were from […]

Structure (SMILES) | Effect of preincubation on Nano-FITCMG@PSI internalization (WERI-Rb-1 cells) | Effect on MDMX degradation by Nano-MP@PSI (MDMX)
N=C(N)NC(=O)c1nc(Cl)c(N)nc1N [Amiloride] | suppressed | –
CC(C)C[C@@H](C=O)NC(=O)[C@H](CC(C)C)NC(=O)[C@H](CC(C)C)NC(=O)OCc1ccccc1 [MG132] (Cbz-Leu-Leu-Leu-aldehyde) | – | totally inhibits
Cl.N [NH4Cl] | – | neither a chloroquine (a lysosome inhibitor) nor NH4Cl (an autophagy inhibitor) had any effect
CCOC(=O)c1ccc(N2NC(=O)/C(=C/c3ccc([N+](=O)[O-])o3)C2=O)cc1 [PYR41] | – | totally inhibits
CCN(CC)CCCC(C)Nc1ccnc2cc(Cl)ccc12 (stereo not drawn) [chloroquine] | – | neither a chloroquine (a lysosome inhibitor) nor NH4Cl (an autophagy inhibitor) had any effect
C=C1[C@@H](C)[C@H]2[C@H](Cc3ccccc3)NC(=O)[C@]23[C@H](OC(C)=O)/C=C/[C@@](C)(O)C(=O)[C@@H](C)C/C=C/[C@H]3[C@@H]1O [cytochalasin D] | suppressed | –
